According to ChEMBL document CHEMBL1201862, “PubChem BioAssay data set” (2004):
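96-well plates; 48 h exposure; 5 concentrations. Endpoints by linear interpolation between flanking doses. Not reached: highest tested concentration assigned. GI50 = concentration required for 50% inhibition of growth.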 Calls of active or inactive are those of the source. Cut-off read from the data, not from the text of the source: active = GI50 up to about 1.1 µM and inactive = higher. Starred links: 1 amine or outer side, 2 acyl side, 3 side chain; linkers in the order of their positions; H or OH if unused. Non-standard residues stand in square brackets, D forms with d. Residues, ends and D or L forms follow the SMILES beside them. ξ: configuration not given here. X24 = O=C(C(CC(O)CO)O[*:1])[*:2]; Ile(3ξ) = CCC(C)[C@H](N)C(=O)O; NMeV = CN[C@H](C(=O)O)C(C)C; NMeA = CN[C@@H](C)C(=O)O; βAla = NCCC(=O)O

How the values were obtained:
Test in all cases: inhibition of tumour cell growth, NCI panel, 48 h
KM12 = tested on: KM12
SF-539 = tested on: SF-539
EKVX = tested on: EKVX
SR = tested on: SR
NCI-H23 = tested on: NCI-H23
SK-OV-3 = tested on: SK-OV-3
OVCAR-8 = tested on: OVCAR-8
A549 = tested on: A549
ACHN = tested on: ACHN
LOX IMVI = tested on: LOX IMVI
SNB-19 = tested on: SNB-19
SK-MEL-5 = tested on: SK-MEL-5
COLO 205 = tested on: COLO 205
HOP-62 = tested on: HOP-62
CAKI-1 = tested on: CAKI-1

| Structure (SMILES) | GI50 (KM12) | GI50 (SF-539) | GI50 (EKVX) | GI50 (SR) | GI50 (NCI-H23) | GI50 (SK-OV-3) | GI50 (OVCAR-8) | GI50 (A549) | GI50 (ACHN) | GI50 (LOX IMVI) | GI50 (SNB-19) | GI50 (SK-MEL-5) | GI50 (COLO 205) | GI50 (HOP-62) | GI50 (CAKI-1) |
| --- | --- | --- | --- | --- | --- | --- | --- | --- | --- | --- | --- | --- | --- | --- | --- |
| CN(C)CCc1ccc(Cl)cc1Cl | > 100 µM (inactive) | > 100 µM (inactive) | > 100 µM (inactive) | > 100 µM (inactive) | > 100 µM (inactive) | > 100 µM (inactive) | > 100 µM (inactive) | > 100 µM (inactive) | > 100 µM (inactive) | > 100 µM (inactive) | > 100 µM (inactive) | > 100 µM (inactive) | > 100 µM (inactive) | > 100 µM (inactive) | > 100 µM (inactive) |
| CC(=O)O/N=C/c1cc2c(cc1Br)OCO2 | > 349 µM (inactive) | – | > 349 µM (inactive) | > 349 µM (inactive) | > 349 µM (inactive) | > 349 µM (inactive) | > 349 µM (inactive) | > 349 µM (inactive) | > 349 µM (inactive) | > 349 µM (inactive) | – | > 349 µM (inactive) | > 349 µM (inactive) | > 349 µM (inactive) | > 349 µM (inactive) |
| CCC12CCCNC1c1c(n(C)c3ccccc13)C(C(=O)OC)C2 (centres undefined) | 58.3 µM (inactive) | 108 µM (inactive) | 79.3 µM (inactive) | 49.8 µM (inactive) | 51.6 µM (inactive) | 46.9 µM (inactive) | 88.3 µM (inactive) | 93.3 µM (inactive) | 79.4 µM (inactive) | 93.1 µM (inactive) | 95.5 µM (inactive) | 36.6 µM (inactive) | 38.8 µM (inactive) | 93.3 µM (inactive) | 32.8 µM (inactive) |
| CC(=O)O[C@H]1CC[C@@]2(C)C(=CC[C@@H]3C2CC[C@]2(C)Nc4c(cnn4-c4ccccc4)CC32)C1 (some centres undefined) | 11.9 µM (inactive) | 2.51 µM (inactive) | 44.6 µM (inactive) | – | 28.2 µM (inactive) | 27.8 µM (inactive) | 29.4 µM (inactive) | 23.7 µM (inactive) | 13.8 µM (inactive) | – | – | 28.1 µM (inactive) | – | 12.4 µM (inactive) | 15.3 µM (inactive) |
| CCCCCCCCOCC(O)COC(C)C (centres undefined) | – | – | – | 17 µM (inactive) | 25.7 µM (inactive) | > 100 µM (inactive) | 70 µM (inactive) | 41.6 µM (inactive) | 97.9 µM (inactive) | 25.8 µM (inactive) | 74.6 µM (inactive) | 26.2 µM (inactive) | 40 µM (inactive) | 91.8 µM (inactive) | 43.1 µM (inactive) |
| COc1cc(C)c(C(=O)/C=C/c2cc(OC)c(O)c(OC)c2)cc1O | 15.9 µM (inactive) | 29.6 µM (inactive) | 32.4 µM (inactive) | – | 12.2 µM (inactive) | 32.1 µM (inactive) | 30.2 µM (inactive) | 29.3 µM (inactive) | 32.8 µM (inactive) | 19.5 µM (inactive) | 18 µM (inactive) | 17 µM (inactive) | 32.7 µM (inactive) | 22.7 µM (inactive) | 26.4 µM (inactive) |
| COc1ccc2c(c1)[n+]([O-])c(C(=O)C/C(=N\NC(=O)C[N+](C)(C)C)C(=O)Nc1cc(Cl)ccc1Cl)c(C)[n+]2[O-] | > 100 µM (inactive) | > 100 µM (inactive) | 0.0891 µM (active) | 43.3 µM (inactive) | > 100 µM (inactive) | – | > 100 µM (inactive) | > 100 µM (inactive) | > 100 µM (inactive) | > 100 µM (inactive) | > 100 µM (inactive) | > 100 µM (inactive) | > 100 µM (inactive) | > 100 µM (inactive) | > 100 µM (inactive) |
| NC(CO)c1ccc(OCc2ccccc2)cc1 (centres undefined) | > 100 µM (inactive) | > 100 µM (inactive) | 89.3 µM (inactive) | 31.2 µM (inactive) | > 100 µM (inactive) | > 100 µM (inactive) | > 100 µM (inactive) | > 100 µM (inactive) | > 100 µM (inactive) | 47.3 µM (inactive) | > 63.7 µM (inactive) | > 100 µM (inactive) | > 100 µM (inactive) | > 100 µM (inactive) | > 53.7 µM (inactive) |
| C=CCOC1CC(n2cnc3c(N)ncnc32)OC1CO (centres undefined) | > 100 µM (inactive) | > 100 µM (inactive) | – | > 100 µM (inactive) | > 100 µM (inactive) | – | > 100 µM (inactive) | > 100 µM (inactive) | > 100 µM (inactive) | – | > 100 µM (inactive) | > 100 µM (inactive) | > 100 µM (inactive) | > 100 µM (inactive) | > 100 µM (inactive) |
| O=C(O)COc1ccc(O)c2c1C(=O)CCCC2=O | > 100 µM (inactive) | > 100 µM (inactive) | > 100 µM (inactive) | – | > 100 µM (inactive) | > 100 µM (inactive) | > 100 µM (inactive) | > 100 µM (inactive) | > 100 µM (inactive) | > 100 µM (inactive) | > 100 µM (inactive) | > 100 µM (inactive) | > 100 µM (inactive) | > 100 µM (inactive) | > 100 µM (inactive) |
| O=C(/C=C\c1cccc2ccccc12)c1cccs1 | 4.88 µM (inactive) | 16.9 µM (inactive) | 12.8 µM (inactive) | – | 16.7 µM (inactive) | 15.5 µM (inactive) | 7.08 µM (inactive) | 16.8 µM (inactive) | 11.5 µM (inactive) | – | 12.6 µM (inactive) | 13.3 µM (inactive) | 15.7 µM (inactive) | 17.7 µM (inactive) | 6.31 µM (inactive) |
| N#CC(C#N)=Cc1ccc(C(O)P(=O)(O)O)cc1 (centres undefined) | > 100 µM (inactive) | > 100 µM (inactive) | > 100 µM (inactive) | – | > 100 µM (inactive) | > 100 µM (inactive) | > 100 µM (inactive) | > 100 µM (inactive) | > 100 µM (inactive) | > 100 µM (inactive) | > 100 µM (inactive) | > 100 µM (inactive) | > 100 µM (inactive) | > 100 µM (inactive) | > 100 µM (inactive) |
| O=C1NC2C=CN(Cc3ccccc3)C=C2C(=O)N2CCCC12 (centres undefined) | > 100 µM (inactive) | > 100 µM (inactive) | > 100 µM (inactive) | > 100 µM (inactive) | > 100 µM (inactive) | > 100 µM (inactive) | > 100 µM (inactive) | > 100 µM (inactive) | > 100 µM (inactive) | – | > 100 µM (inactive) | > 100 µM (inactive) | > 100 µM (inactive) | > 100 µM (inactive) | > 100 µM (inactive) |
| COc1cc2cc3c4c(cc(OC)c(OC)c4c2cc1OC)CCN3C(=O)CCC(=O)O | > 100 µM (inactive) | > 100 µM (inactive) | > 100 µM (inactive) | > 100 µM (inactive) | > 100 µM (inactive) | > 100 µM (inactive) | – | > 100 µM (inactive) | > 100 µM (inactive) | > 100 µM (inactive) | > 100 µM (inactive) | > 100 µM (inactive) | > 100 µM (inactive) | > 100 µM (inactive) | > 100 µM (inactive) |
| CCCCCCCC(=O)OCC(COC(=O)C(C)(C)C)OC(=O)Cc1ccccc1 (centres undefined) | – | – | – | – | > 100 µM (inactive) | > 100 µM (inactive) | > 100 µM (inactive) | > 100 µM (inactive) | > 100 µM (inactive) | > 100 µM (inactive) | > 100 µM (inactive) | > 100 µM (inactive) | > 100 µM (inactive) | > 100 µM (inactive) | > 100 µM (inactive) |
| N#C/C(=N\c1ccccc1N(C(=O)c1ccccc1)C(=O)c1ccccc1)c1ccccc1 | 3.62 µM (inactive) | > 100 µM (inactive) | > 100 µM (inactive) | 2.4 µM (inactive) | > 62.5 µM (inactive) | > 100 µM (inactive) | 10.3 µM (inactive) | 9.04 µM (inactive) | > 60.5 µM (inactive) | 27.2 µM (inactive) | 3.62 µM (inactive) | 70.8 µM (inactive) | > 42 µM (inactive) | > 30.7 µM (inactive) | 47.6 µM (inactive) |
| CCOc1ccc2c(c1)[n+]([O-])c(-c1ccccc1Cl)c(N)[n+]2[O-] | > 100 µM (inactive) | > 100 µM (inactive) | > 100 µM (inactive) | 94 µM (inactive) | > 100 µM (inactive) | > 100 µM (inactive) | > 100 µM (inactive) | > 100 µM (inactive) | > 100 µM (inactive) | – | > 100 µM (inactive) | 90.2 µM (inactive) | > 100 µM (inactive) | > 100 µM (inactive) | > 100 µM (inactive) |
| C=C1c2ccccc2N(S(=O)(=O)c2ccc(C)cc2)C12CCCCC2 | 38.5 µM (inactive) | > 100 µM (inactive) | > 100 µM (inactive) | 13.1 µM (inactive) | 25.3 µM (inactive) | > 100 µM (inactive) | > 100 µM (inactive) | 63.4 µM (inactive) | 57.4 µM (inactive) | 36.6 µM (inactive) | > 100 µM (inactive) | 30.8 µM (inactive) | 43.5 µM (inactive) | > 100 µM (inactive) | – |
| COc1cc(C2C(C(=O)O)=C(COC(C)=O)Oc3cc4c(cc32)OCO4)cc(OC)c1OC(C)=O (centres undefined) | – | – | > 100 µM (inactive) | – | > 100 µM (inactive) | > 100 µM (inactive) | > 100 µM (inactive) | > 100 µM (inactive) | > 100 µM (inactive) | > 100 µM (inactive) | > 100 µM (inactive) | > 100 µM (inactive) | > 100 µM (inactive) | > 100 µM (inactive) | > 100 µM (inactive) |
| CCC(C)[C@@H]1NC(=O)[C@@H]2CCCN2C(=O)C(CC(O)CO)OC(=O)CCNC(=O)[C@H](C)N(C)C(=O)[C@H](C(C)C)N(C)C1=O (some centres undefined) (cyclo([Ile(3ξ)][NMeV][NMeA][βAla][X24]P)) | > 100 µM (inactive) | > 100 µM (inactive) | – | > 100 µM (inactive) | > 100 µM (inactive) | > 100 µM (inactive) | > 100 µM (inactive) | > 100 µM (inactive) | – | 84.5 µM (inactive) | > 100 µM (inactive) | > 100 µM (inactive) | > 100 µM (inactive) | > 100 µM (inactive) | > 100 µM (inactive) |
